{"source": "patent US20210355106A1", "about": "“NEW AMINO-PYRIMIDONYL-PIPERIDINYL DERIVATIVES, A PROCESS FOR THEIR PREPARATION AND PHARMACEUTICAL COMPOSITIONS CONTAINING THEM” (LES LABORATOIRES SERVIER, priority 2018, published 2021)", "key": {"[1]": {"system": "Z138 mantle cell lymphoma tumour cell lines", "assay": "In vitro cytotoxicity, MTT assay", "assay_type": "cell-based", "details": "Z138 cells, exposed to the test compounds for 96 hours", "procedure,_shortened": "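Z138 cells exposed to compounds for 96 hours, then MTT added for 4 hours. Formazan absorbance at 540 nm serves as the measure of viable cell number.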"}, "USP7": {"molecular_target": "T1, USP7 (Homo sapiens, UniProt Q93009, C315A)", "T1 construct": "0.25 nM His-His-USP7 (aa208-560, |C315A|) was incubated with compound; His-His (N)", "T1 sequence (Q93009 208-560 C315A)": "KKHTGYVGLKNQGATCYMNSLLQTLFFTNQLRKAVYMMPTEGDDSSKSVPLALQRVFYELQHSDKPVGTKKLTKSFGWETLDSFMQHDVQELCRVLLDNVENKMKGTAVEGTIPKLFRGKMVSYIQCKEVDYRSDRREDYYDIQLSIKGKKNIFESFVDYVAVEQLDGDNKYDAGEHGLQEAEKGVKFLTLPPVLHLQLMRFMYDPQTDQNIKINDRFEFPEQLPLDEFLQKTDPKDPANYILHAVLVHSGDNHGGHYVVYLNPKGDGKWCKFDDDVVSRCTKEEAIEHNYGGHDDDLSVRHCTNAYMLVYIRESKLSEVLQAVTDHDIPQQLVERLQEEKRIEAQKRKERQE", "assay": "Inhibition of USP7 by Fluorescence Intensity (FLINT) readings, Ubiquitin-Rhodamine-110 substrate", "assay_type": "biochemical", "details": "0.25 nM His-His-USP7 (aa208-560), 60 minutes at 30° C. preincubation; Ki determined from IC50 according to Cer et al.", "procedure,_shortened": "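His-tagged USP7 (aa208-560, C315A), 0.25 nM, preincubated with compound 60 min at 30 °C in 100 mM Bicine pH 8.0, 0.01% Triton X-100, 1 mM TCEP, 10% DMSO. Ubiquitin-Rhodamine-110 (50 nM or 4 μM) added; kinetic fluorescence (Ex 485/Em 535 nm) over 21 min; IC50 from 11-point curves, Ki derived from IC50.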"}}, "data": [{"smiles": "Cc1nc(-c2ccc(C(F)(F)F)nc2)sc1C(=O)N1CC[C@@H](C(=O)N2CC[C@](O)(Cn3cnc(Oc4ccc(F)cc4)c(N)c3=O)C(F)(F)C2)[C@H](c2ccccc2)C1", "note": "[Example 103]", "values": [{"measurement": "IC50", "setting": "[1]; Homo sapiens, Z-138", "result": 6.63, "unit": "nM"}, {"measurement": "Ki", "setting": "USP7", "result": 6.4, "unit": "nM"}]}, {"smiles": "Cc1cnc(CN2CC[C@@H](C(=O)N3CC[C@](O)(Cn4cnc(Oc5ccc(Cl)c(F)c5)c(N)c4=O)C(F)(F)C3)[C@H](c3ccccc3)C2)cn1", "note": "[Example 148, 5-amino-6-(4-chloro-3-fluoro-phenoxy)-3-[[(4S)-3,3-difluoro-4-hydroxy-1-[(3R,4R)-1-[(5-methylpyrazin-2-yl)methyl]-3-phenyl-piperidine-4-carbonyl]-4-piperidyl]methyl]pyrimidin-4-one]", "values": [{"measurement": "IC50", "setting": "[1]; Homo sapiens, Z-138", "result": 39.9, "unit": "nM"}, {"measurement": "Ki", "setting": "USP7", "result": 7.5, "unit": "nM"}]}, {"smiles": "CN1CCN(c2cccc(C(=O)N3CC[C@@H](C(=O)N4CCC(O)(Cn5cnc(Oc6ccc(F)cc6)c(N)c5=O)CC4)[C@H](c4ccccc4)C3)c2)CC1", "note": "[Example 56]", "values": [{"measurement": "IC50", "setting": "[1]; Homo sapiens, Z-138", "result": 42, "unit": "nM"}, {"measurement": "Ki", "setting": "USP7", "result": 16, "unit": "nM"}]}, {"smiles": "Nc1c(Oc2ccc(F)cc2)ncn(CC2(O)CCN(C(=O)[C@@H]3CCN(C(=O)c4cccc(Br)c4)C[C@H]3c3ccccc3)CC2)c1=O", "note": "[Example 31, 5-amino-3-({1-((3R,4R)-1-(3-bromobenzoyl)-3-phenylpiperidine-4carbonyl]-4-hydroxypiperidin-4-yl)methyl)-6-(4-fluorophenoxy)pyrimidin-4(3H)-one]", "values": [{"measurement": "IC50", "setting": "[1]; Homo sapiens, Z-138", "result": 5.45, "unit": "nM"}, {"measurement": "Ki", "setting": "USP7", "result": 9.15, "unit": "nM"}]}, {"smiles": "Cc1cc(C(=O)N2CC[C@@H](C(=O)N3CC[C@](O)(Cn4cnc(Oc5ccc(F)cc5)c(N)c4=O)C(F)(F)C3)[C@H](c3ccccc3)C2)nn1-c1ccccc1", "note": "[Example 120, 5-amino-3-({(4S)-3,3-difluoro-4-hydroxy-1-[(3R,4R)-1-(5-methyl-1-phenyl-1H-pyrazole-3-carbonyl)-3phenylpiperidine-4-carbonyl]piperidin-4-yl)methyl)-6(4-fluorophenoxy)pyrimidin-4(3H)-one]", "values": [{"measurement": "IC50", "setting": "[1]; Homo sapiens, Z-138", "result": 41.3, "unit": "nM"}, {"measurement": "Ki", "setting": "USP7", "result": 45.4, "unit": "nM"}]}, {"smiles": "Nc1c(Oc2ccc(F)cc2)ncn(CC2(O)CCN(C(=O)[C@@H]3CCN(C4(c5cccc(F)c5)COC4)C[C@H]3c3ccccc3)CC2)c1=O", "note": "[Example 153, 5-amino-6-(4-fluorophenoxy)-3-[[1-[(3R,4R)-1-[3-(3-fluorophenyl)oxetan-3-yl]-3-phenyl-piperidine-4-carbonyl]-4-hydroxy-4-piperidyl]methyl]pyrimidin-4-one]", "values": [{"measurement": "IC50", "setting": "[1]; Homo sapiens, Z-138", "result": 62, "unit": "nM"}, {"measurement": "Ki", "setting": "USP7", "result": 28.7, "unit": "nM"}]}, {"smiles": "Nc1c(Oc2ccc(F)cc2)ncn(CC2(O)CCN(C(=O)[C@@H]3CCN(C(=O)c4sc(Br)c5c4OCCO5)C[C@H]3c3ccccc3)CC2)c1=O", "note": "[Example 67]", "values": [{"measurement": "IC50", "setting": "[1]", "result": 27.8, "unit": "nM"}, {"measurement": "Ki", "setting": "USP7", "result": 14, "unit": "nM"}]}, {"smiles": "Cc1ccc(-c2nc(C)c(C(=O)N3CC[C@@H](C(=O)N4CC[C@](O)(Cn5cnc(Oc6ccc(F)cc6)c(N)c5=O)C(F)(F)C4)[C@H](c4ccccc4)C3)s2)cn1", "note": "[Example 45]", "values": [{"measurement": "IC50", "setting": "[1]; Homo sapiens, Z-138", "result": 1.4, "unit": "nM"}, {"measurement": "Ki", "setting": "USP7", "result": 3.6, "unit": "nM"}]}, {"smiles": "Cc1cc(C(=O)N2CC[C@@H](C(=O)N3CCC(O)(Cn4cnc(Oc5ccc(F)cc5)c(N)c4=O)CC3)[C@H](c3ccccc3)C2)cc(C)n1", "note": "[Example 97, 5-amino-3-({1-[(3R,4R)-1-(2,6-dimethylpyridine-4-carbonyl)-3-phenylpiperidine-4-carbonyl]-4-hydroxypiperidin-4-yl}methyl)-6-(4-fluorophenoxy)pyrimidin-4(3H)-one]", "values": [{"measurement": "IC50", "setting": "[1]; Homo sapiens, Z-138", "result": 42.7, "unit": "nM"}, {"measurement": "Ki", "setting": "USP7", "result": 9.8, "unit": "nM"}]}, {"smiles": "Cc1nc(C2CCCN(C)C2)sc1C(=O)N1CC[C@@H](C(=O)N2CCC(O)(Cn3cnc(Oc4ccc(F)cc4)c(N)c3=O)CC2)[C@H](c2ccccc2)C1", "note": "(stereo partly drawn) [Example 199, 5-amino-6-(4-fluorophenoxy)-3-[[4-hydroxy-1-[(3R,4R)-1-[4-methyl-2-(1-methyl-3-piperidyl)thiazole-5′-carbonyl]-3-phenyl-piperidine-4-carbonyl]-4-piperidyl]methyl]pyrimidin-4-one]", "values": [{"measurement": "IC50", "setting": "[1]; Homo sapiens, Z-138", "result": 34.1, "unit": "nM"}, {"measurement": "Ki", "setting": "USP7", "result": 9.23, "unit": "nM"}]}, {"smiles": "Cc1ccc(-c2nc(C)c(C(=O)N3CC[C@@H](C(=O)N4CCC(O)(Cn5cnc(Oc6ccc(Cl)cc6)c(N)c5=O)CC4)[C@H](c4ccccc4)C3)s2)cn1", "note": "[Example 22, 5-amino-6-(4-chlorophenoxy)-3-[(4-hydroxy-1-{(3R,4R)-1-[4-methyl-2-(6-methylpyridin-3-yl)-1,3-thiazole-5-carbonyl]-3-phenylpiperidine-4-carbonyl}piperidin-4-yl)methyl]pyrimidin-4(3H)-one]", "values": [{"measurement": "IC50", "setting": "[1]; Homo sapiens, Z-138", "result": 4, "unit": "nM"}, {"measurement": "Ki", "setting": "USP7", "result": 3, "unit": "nM"}]}, {"smiles": "Cc1ccc(-c2cc(F)c(C(=O)N3CC[C@@H](C(=O)N4CC[C@](O)(Cn5cnc(Oc6ccc(F)cc6)c(N)c5=O)C(F)(F)C4)[C@H](c4ccccc4)C3)s2)cn1", "note": "[Example 105, 5-amino-3-([(4S)-3,3-difluoro-1-((3R,4R)-1-[3-fluoro-5-(6-methylpyridin-3-yl)thiophene-2-carbonyl]-3-phenylpiperidine-4-carbonyl}-4-hydroxypiperidin-4-yl}methyl}-6-(4-fluorophenoxy)pyrimidin-4(3H)-one]", "values": [{"measurement": "IC50", "setting": "[1]; Homo sapiens, Z-138", "result": 5.08, "unit": "nM"}, {"measurement": "Ki", "setting": "USP7", "result": 2.6, "unit": "nM"}]}, {"smiles": "Cn1c(C(=O)N2CC[C@@H](C(=O)N3CCC(O)(Cn4cnc(Oc5ccc(F)cc5)c(N)c4=O)CC3)[C@H](c3ccccc3)C2)c(Cl)c2ccccc21", "note": "[Example 127, 5-amino-3-[[1-[(3R,4R)-1-(3-chloro-1-methyl-indole-2-carbonyl)-3-phenyl-piperidine-4-carbonyl]-4-hydroxy-4-piperidyl]methyl]-6-(4-fluorophenoxy)pyrimidin-4-one]", "values": [{"measurement": "IC50", "setting": "[1]; Homo sapiens, Z-138", "result": 20.4, "unit": "nM"}, {"measurement": "Ki", "setting": "USP7", "result": 5.93, "unit": "nM"}]}, {"smiles": "COc1cc(Oc2ncn(C[C@@]3(O)CCN(C(=O)[C@@H]4CCN(Cc5ccnc(C)n5)C[C@H]4c4ccccc4)CC3(F)F)c(=O)c2N)ccc1F", "note": "[Example 149]", "values": [{"measurement": "IC50", "setting": "[1]; Homo sapiens, Z-138", "result": 24.1, "unit": "nM"}, {"measurement": "Ki", "setting": "USP7", "result": 14, "unit": "nM"}]}, {"smiles": "Cc1nc(C2CCOCC2)sc1C(=O)N1CC[C@@H](C(=O)N2CC[C@](O)(Cn3cnc(Oc4ccc(F)cc4)c(N)c3=O)C(F)(F)C2)[C@H](c2ccccc2)C1", "note": "[Example 192, 5-amino-3-[[(4S)-3,3-difluoro-4-hydroxy-1-[(3R,4R)-1-(4-methyl-2-tetrahydropyran-4-yl-thiazole-5-carbonyl)-3-phenyl-piperidine-4-carbonyl]-4-piperidyl]methyl]-6-(4-fluorophenoxy)pyrimidin-4-one]", "values": [{"measurement": "IC50", "setting": "[1]; Homo sapiens, Z-138", "result": 8.48, "unit": "nM"}, {"measurement": "Ki", "setting": "USP7", "result": 8.8, "unit": "nM"}]}, {"smiles": "COc1cc(Oc2ncn(C[C@@]3(O)CCN(C(=O)[C@@H]4CCN(Cc5cnccn5)C[C@H]4c4ccccc4)CC3(F)F)c(=O)c2N)ccc1F", "note": "[Example 213, 5-amino-3-[[(4S)-3,3-difluoro-4-hydroxy-1-[(3R,4R)-3-phenyl-1-(pyrazin-2-ylmethyl)piperidine-4-carbonyl]-4-piperidyl]methyl]-6-(4-fluoro-3-methoxy-phenoxy)pyrimidin-4-one]", "values": [{"measurement": "IC50", "setting": "[1]; Homo sapiens, Z-138", "result": 15.6, "unit": "nM"}, {"measurement": "Ki", "setting": "USP7", "result": 36.4, "unit": "nM"}]}, {"smiles": "Nc1c(Oc2ccc(F)cc2)ncn(CC2(O)CCN(C(=O)[C@@H]3CCN(Cc4cnccn4)C[C@H]3c3ccccc3)CC2)c1=O", "note": "[Example 63]", "values": [{"measurement": "IC50", "setting": "[1]; Homo sapiens, Z-138", "result": 16.3, "unit": "nM"}, {"measurement": "Ki", "setting": "USP7", "result": 12.4, "unit": "nM"}]}, {"smiles": "Cc1ncc(C(=O)N2CC[C@@H](C(=O)N3CCC(O)(Cn4cnc(Oc5ccc(F)cc5)c(N)c4=O)CC3)[C@H](c3ccccc3)C2)s1", "note": "[Example 49]", "values": [{"measurement": "IC50", "setting": "[1]; Homo sapiens, Z-138", "result": 31, "unit": "nM"}, {"measurement": "Ki", "setting": "USP7", "result": 24.9, "unit": "nM"}]}]}
